According to US10184115B2, “Mutated cellobiose dehydrogenase with increased substrate specificity” (DIRECTSENS GMBH, priority 2012, dated 2019):

Tests used:
Assay type in all cases: biochemical
[1] = target: Myriococcum thermophilum cellobiose dehydrogenase (CDH, SEQ ID NO: 1) variant C312Y (Thermothelomyces myriococcoides, UniProt A9XK88, C312Y); settings: apparent, DCIP assay, pH 4.5, 30° C.
Procedure: (§1) Enzyme activity was assayed at 30° C. using either the DCIP (Karapetyan et al., 2005 Journal of Biotechnology 121: 34-48) or cytochrome c (Canevascini et al., 1991, European Journal of Biochemistry 198: 43-52) as electron acceptor. […] Stock solutions of carbohydrates used for kinetic measurements were prepared in the respective buffer and allowed to stand overnight for mutarotation, while stock solutions of electron acceptors were prepared in water and immediately used. The reaction stoichiometry is 1 for the two-electron acceptor DCIP (1 mole of DCIP reduced per mole of carbohydrate oxidized), but 2 for the one-electron acceptor cytochrome c. Kinetic constants were calculated by fitting the observed data to the Henri-Michaelis-Menten equation or to the adapted model for substrate inhibition using nonlinear least-squares regression and the program SigmaPlot (Systat Software, San Jose, Calif., USA).
(§2) The M. thermophilum CDH gene (EF492051, SEQ ID NO: 2) was codon-optimized for expression in Pichia pastoris according to the method described in Abad et al., 2010 and WO2010/097462 A1 (SEQ ID NO: 13) and synthesized by Gen-script (Piscataway, N.J., USA). cDNA encoding for M. thermophilum CDH was excised from the plasmid pMTSopt using EcoRI and NotI and cloned into the expression vector pPicZA along with its native signal sequence. Plasmid pCT1 was used as template for the amplification of the C. thermophilus CDH cDNA. Restriction enzymes BstBI and XbaI were used for cloning into the expression vector pPicZB along with its native signal sequence. Mutants of M. thermophilum CDH: C312Y, N313S, W316L, W316R, R622N, N721D, C312Y/W316L, C312Y/W316R and C. thermophiles CDH C310Y were prepared by a two step mutagenesis approach using PCR and DpnI (Li et al., 2002). […] SacI linearized expression plasmids were transformed into electrocompetent X-33 cells and transformants were selected on YPD Zeocin plates ([…]).
(§3) Recombinant wild-type CDH as well as variants were produced in 1 L baffled flasks. Precultures were grown overnight in 30 mL of YPD medium at 30° C. and 120 rpm. After approximately 18 hours the precultures were transferred into 1 L baffled flasks containing 200 mL BMGY medium without methanol. Induction with methanol was started immediately using a multichannel peristaltic pump (Minipuls Evolution, Gilson, Middleton, Wis., USA). Each flask was supplied eight times a day with methanol yielding a total concentration of 2% (v/v) methanol per day. Increase in activity was monitored using the DCIP and the cytochrome c enzyme assays. Cultivation was stopped at day five of methanol induction, cells removed by centrifugation (4000 rpm, 20 min) and the supernatant set to a final ammonium sulfate concentration of 20%.
(§4) The sample was loaded on a 20 mL PHE Sepharose FF column (HR26/20) equilibrated with 50 mM Na-acetate buffer pH 5.5 containing 20% ammonium sulfate. Proteins were eluted by increasing the concentration of the elution buffer (50 mM Na-acetate buffer pH 5.5) from 0 to 100% in 5 column volumes and fractions containing CDH activity were pooled. After diafiltration with a polyethersulfone flat-stack cross flow module with a cut-off of 10 kDa (Viva Flow 50, Sartorius, Göttingen, Germany) until conductivity of 5 mS cm^−1 in 20 mM Na-acetate pH 5.5 the samples were loaded on a 20 mL Q-Source column (HR26/20) equilibrated with a 20 mM Na-acetate buffer pH 5.5. CDH was eluted by increasing the concentration of the elution buffer (50 mM Na-acetate buffer pH 5.5 containing 0.5 M NaCl) from 0 to 100% in 50 column volumes. Fractions were tested for CDH activity and pooled according to the highest Reinheitszahl (RZ, calculated from the absorbance ratio 420 nm/280 nm). Purified enzymes were concentrated and diafiltered in 50 mM citrate buffer, pH 5.5, aliquoted and kept at 4° C. for further use.

[2] = target: Myriococcum thermophilum cellobiose dehydrogenase (CDH, SEQ ID NO: 1) variant C312Y/W316L (Thermothelomyces myriococcoides, UniProt A9XK88, C312Y/W316L); settings: apparent, DCIP assay, pH 4.5, 30° C.; for kcat: ~ values only estimated by non linear regression
Procedure: as §1, §2, §3, §4

[3] = target: Myriococcum thermophilum cellobiose dehydrogenase (CDH, SEQ ID NO: 1) variant C312Y/W316R (Thermothelomyces myriococcoides, UniProt A9XK88, C312Y/W316R); settings: apparent, DCIP assay, pH 4.5, 30° C.; for kcat: ~ values only estimated by non linear regression
Procedure: as §1, §2, §3, §4

[4] = target: T1, Corynascus thermophilus CDH flavodehydrogenase domain, recombinant wild type (wtDH), amino acids 249-787 of SEQ ID NO: 7 (Thermothelomyces fergusii, UniProt E7D6B9); test: Steady-state kinetics, DCIP assay: C. thermophilus flavodehydrogenase domain wt; settings: apparent, pH 5.5, 30° C.
T1 sequence (E7D6B9 249-787): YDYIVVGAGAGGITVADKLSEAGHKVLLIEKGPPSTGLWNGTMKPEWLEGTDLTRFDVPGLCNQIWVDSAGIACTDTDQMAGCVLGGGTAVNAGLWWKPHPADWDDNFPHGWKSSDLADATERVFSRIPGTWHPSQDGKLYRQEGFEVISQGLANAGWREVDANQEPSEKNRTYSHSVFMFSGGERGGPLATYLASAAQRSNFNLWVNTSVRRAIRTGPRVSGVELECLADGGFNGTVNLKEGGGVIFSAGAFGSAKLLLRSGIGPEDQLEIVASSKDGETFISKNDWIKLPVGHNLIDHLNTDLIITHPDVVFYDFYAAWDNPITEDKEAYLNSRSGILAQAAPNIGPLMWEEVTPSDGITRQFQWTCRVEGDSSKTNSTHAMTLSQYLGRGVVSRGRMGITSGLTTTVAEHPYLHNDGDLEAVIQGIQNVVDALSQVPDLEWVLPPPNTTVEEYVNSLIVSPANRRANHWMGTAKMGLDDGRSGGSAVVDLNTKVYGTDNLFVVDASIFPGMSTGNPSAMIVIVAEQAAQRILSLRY
Procedure: as §1
The construct was confirmed by sequencing.
as §3
as §4, with “Purified enzymes were concentrated and diafiltered in 50 mM citrate buffer, pH 5.5, aliquoted and kept at 4° C. for further use.” left out

Sequence of Myriococcum thermophilum cellobiose dehydrogenase (CDH, SEQ ID NO: 1) variant C312Y/W316L (A9XK88 entry or part of it C312Y/W316L): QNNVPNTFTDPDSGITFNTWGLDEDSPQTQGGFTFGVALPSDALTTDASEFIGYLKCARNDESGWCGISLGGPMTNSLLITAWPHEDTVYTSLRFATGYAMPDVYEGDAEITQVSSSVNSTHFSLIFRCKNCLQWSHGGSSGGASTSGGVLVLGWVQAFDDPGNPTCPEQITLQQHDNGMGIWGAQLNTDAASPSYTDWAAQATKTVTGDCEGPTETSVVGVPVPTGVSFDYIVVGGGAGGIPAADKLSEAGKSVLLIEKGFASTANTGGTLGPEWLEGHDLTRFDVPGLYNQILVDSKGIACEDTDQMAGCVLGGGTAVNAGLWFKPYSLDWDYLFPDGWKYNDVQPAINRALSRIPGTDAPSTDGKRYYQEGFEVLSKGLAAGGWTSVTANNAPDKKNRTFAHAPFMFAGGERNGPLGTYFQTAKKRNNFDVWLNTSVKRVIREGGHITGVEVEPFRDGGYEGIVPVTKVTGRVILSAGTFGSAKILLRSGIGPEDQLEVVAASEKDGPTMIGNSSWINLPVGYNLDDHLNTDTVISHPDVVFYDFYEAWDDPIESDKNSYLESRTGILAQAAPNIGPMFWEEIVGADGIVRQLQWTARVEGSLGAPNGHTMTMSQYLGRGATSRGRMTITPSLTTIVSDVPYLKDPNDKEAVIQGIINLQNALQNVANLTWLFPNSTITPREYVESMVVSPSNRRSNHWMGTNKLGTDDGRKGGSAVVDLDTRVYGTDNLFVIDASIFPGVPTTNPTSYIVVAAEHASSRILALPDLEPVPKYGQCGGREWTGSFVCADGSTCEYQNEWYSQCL
Sequence of Myriococcum thermophilum cellobiose dehydrogenase (CDH, SEQ ID NO: 1) variant C312Y (A9XK88 entry or part of it C312Y): as the sequence (A9XK88 entry or part of it C312Y/W316L) above, with L295W counted along it
Sequence of Myriococcum thermophilum cellobiose dehydrogenase (CDH, SEQ ID NO: 1) variant C312Y/W316R (A9XK88 entry or part of it C312Y/W316R): as the sequence (A9XK88 entry or part of it C312Y/W316L) above, with L295R counted along it

| Structure (SMILES) | kcat [1] [s⁻¹] | kcat/KM [1] [M⁻¹ s⁻¹] | kcat/KM [2] [M⁻¹ s⁻¹] | kcat [2] [s⁻¹] | kcat/KM [3] [M⁻¹ s⁻¹] | kcat [3] [s⁻¹] | kcat [4] [s⁻¹] | kcat/KM [4] [M⁻¹ s⁻¹] |
| --- | --- | --- | --- | --- | --- | --- | --- | --- |
| OC[C@H]1O[C@H](O[C@H]2[C@H](O)[C@@H](O)C(O)O[C@@H]2CO)[C@H](O)[C@@H](O)[C@@H]1O (stereo partly shown) [Maltose, maltose] | 0.48 | 3.5 | 0.62 | ~0.92 | 0.17 | ~2.7 | 0.86 | 296 |
| OC[C@H]1OC(O)[C@H](O)[C@@H](O)[C@@H]1O (stereo partly shown) [Glucose, glucose] | 9.6 | 50 | 13 | 6.4 | 6.2 | 4.3 | 8.8 | 79.1 |
